Data reported in article PMC5093207, “Pre-clinical Evaluation of a Cyanine-Based SPECT Probe for Multimodal Tumor Necrosis Imaging” (Molecular Imaging and Biology, 2016).

Assays:
4T1-luc2 cells [1] = assay: In vitro MTS viability assay; type: cell-based; conditions: Mus musculus, 24 h, 4T1 cells, read-out: IC50 of induced cell death
Procedure: 4T1-luc2 cells were plated in a 96-well plate (Costar) in 100 μl medium at a density of 10,000 cells per well and left over night to adhere. The next day, the medium was replaced with medium containing the experimental compounds: HQ4, HQ4-DTPA, HQ5, and Gambogic acid (GA), three wells per condition. After 24 h, cell viability was measured using a nonradioactive colorimetric MTS viability assay (Promega Benelux) according to the manufacturer’s protocol. Optical absorption was measured at 490 nm with a Versamax absorbance microplate reader (Molecular Devices).
Supplementary Figure 3: MTS cell viability assay of various agents.
Confluent cultures of 4T1 cells were incubated for 24hr with various concentrations HQ4, HQ4-DTPA, HQ5 or the natural anti-cancer compound Gambogic Acid (GA). Relative cell viability (%) was expressed as a percentage relative to the untreated control.
GA induced cell death with an IC50 of around 6µM.
(§1) (1 picture or pasted object on this page, not shown here)

4T1-luc2 cells [2] = assay: Dry ice dead cell assay (cryo-induced cell death), fluorescence and radioactivity read-out; type: cell-based, mouse; conditions: 100 nM, 15 min incubation, 4T1 cells; for accumulation in the dead cells area by radioactivity (RA) measurement: phosphor imaging
Procedure: In vitro, cell death was studied using a cryo-induced cell death assay as previously described. In short, 4T1-luc2 cells were seeded onto 24-well tissue culture plates (Sigma-Aldrich) and grown until confluent. After discarding the medium, a bar of dry ice 3–5 mm in diameter was applied to the underside of the culture well for 20 s. Subsequently, the cells were incubated in the dark for 15 min at RT with HQ4 at a concentration of 100 nM. After incubation, the samples were gently washed with phosphate-buffered saline (PBS) and subsequently scanned for fluorescence using the Odyssey Infrared Imager 9120 (LI-COR) and for radioactivity via phosphor imaging on the Typhoon 9410 imager (GE Healthcare).
Fig. 2 In vitro necrosis avid properties of [^111In]DTPA-HQ4 by fluorescence and radioactivity measurements. a Necrotic cell death in confluent monolayers of 4T1 mouse breast cancer cells was induced by applying dry ice to the underside of the culture well. Cells were subsequently incubated for 15 min with one of the following: HQ4, HQ4-DTPA, [^111In]DTPA-HQ4, [^111In]DTPA, or ^111In-Cl3 (100 nM, 10 μg). After subsequent washing with PBS, cells were imaged either for fluorescence (FLI, upper panel) or for radioactivity (RA, lower panel). NL = not labeled. b Calculated signal-to-background (S/B) ratio (FLI and RA) of the different compounds obtained from the dry ice assay. The S/B ratio was defined as the signal intensity obtained from the area of dead cells in the center of the well divided by the signal intensity obtained from an area of living cells of the same size in the periphery.

4T1 tumor bearing mice = assay: Biodistribution (gamma counting of organs) in 4T1 tumor bearing mice, model of spontaneous tumor necrosis; type: in vivo, mouse; conditions: 24 h after i.v. injection, 10 μg, 30-35 MBq
Procedure: Approximately 1 × 10^5 4T1-luc2 cells, suspended in 15 μl PBS, were implanted bilateral and subcutaneously onto the upper back of nude mice. Tumors were grown until they reached a size of 6–7 mm in diameter which developed roughly after 1.5–2 weeks of tumor implantation.
(§2) To study the specificity of the radiolabeled HQ4-DTPA versus radiolabeled DTPA in vivo, 10 μg [^111In]DTPA-HQ4 (=10 nmol per mouse) or 10 μg [^111In]DTPA was injected i.v. into mice bearing 4T1-luc2 tumors (n = 3 and 4, respectively). The total injected dose (ID) in each mouse was determined in a dose-calibrator (VDC101, Veenstra Instruments, Joure, the Netherlands).
After the last imaging time point, mice were sacrificed and several tissues were excised, weighed, and counted for radioactivity (Wizard2 2470 automatic gamma scintillation counter, Perkin Elmer, USA) to determine the percentage of the injected dose per gram (%ID/g). The %ID/g was calculated as follows: (((MBq measured in tissue/injected dose) × 100 %) / weight of tissue).
Fig. 3 Optical imaging, SPECT, and biodistribution of [^111In]DTPA-HQ4 in 4T1 breast tumor bearing mice. a Whole body FLI (coronal view) obtained 6–72 h after tail vein injection of [^111In]DTPA-HQ4 (10 nmol, 30–35 MBq). […] Six, 24, 48, and 72 h after probe injection, mice (n = 3 per time point) were sacrificed and the organs, body fluids, and tumors were dissected, weighed, and measured for radioactivity in a gamma counter. At each time point, the amount of radioactivity in the organs is expressed as percentage of the injected dose divided by […] (%ID/w). d TUNEL-stained histological section of a representative 4T1 mouse breast tumor showing a large area of necrosis (brown).
Supplementary Figure 4: Biodistribution of [111In]DTPA. a) Biodistribution of the free chelate [111In]DTPA in 4T1 tumor bearing mice. 24h after probe injection (10 µg, 30-35 MBq), mice (n=4) were sacrificed and the organs, body fluids and tumors were dissected, weighted and measured for radioactivity in a gamma counter. […]

[3] = Radioactivity remaining in the whole mouse body after injection (clearance); type: in vivo; conditions: for total injected dose retained in the body: whole mouse body
Procedure: as §2
Supplementary Figure 4: Biodistribution of [111In]DTPA. a) Biodistribution of the free chelate [111In]DTPA in 4T1 tumor bearing mice. 24h after probe injection (10 µg, 30-35 MBq), mice (n=4) were sacrificed and the organs, body fluids and tumors were dissected, weighted and measured for radioactivity in a gamma counter. At each time point, the amount of radioactivity in each organ and tumor is expressed as percentage of the injected dose divided by the weight (%ID/w). b) Total amount of remaining [111In]DTPA-HQ4 and [111In]DTPA in the whole mouse body (% of ID) at the indicated time points 6 to 72h after probe injection.
as §1

## CC(C)=CCC[C@]1(C)C=Cc2c(O)c3c(c(CC=C(C)C)c2O1)O[C@]12C(=C[C@@H]4C[C@H]1C(C)(C)O[C@@]2(C/C=C(/C)C(=O)O)C4=O)C3=O [GA, Gambogic acid]
4T1-luc2 cells [1]
  IC50: ~6 µM

## CCCNS(=O)(=O)c1cccc2c3c(ccc12)[N+](CCCCCC(=O)NCCOCCOCCNC(=O)CN(CCN(CCN(CC(=O)O)CC(=O)O)CC(=O)O)CC(=O)O)=C(/C=C/C=C/C=C1/N(CCCCS(=O)(=O)[O-])c2ccc4ccccc4c2C1(C)C)C3(C)C [HQ4-DTPA]
4T1-luc2 cells [2]; FLI
  accumulation in the area of dead cells by fluorescence imaging: strongly accumulated in the area of dead cells

## O=C([O-])CN(CCN(CC(=O)[O-])CC(=O)[O-])CCN(CC(=O)[O-])CC(=O)[O-].[111In+3].[H+].[H+] [[^111In]DTPA]
4T1 tumor bearing mice
  radioactivity in kidneys: 5.0 %ID/w
  radioactivity in liver: 0.6 %ID/w
  radioactivity in tumors: 0.5 %ID/w
[3]; 24 h after injection
  total injected dose retained in the body: 10%
[3]; 48 h after injection
  total injected dose retained in the body: 8%
[3]; fold faster than [111In]DTPA-HQ4
  clearance rate relative to [111In]DTPA-HQ4: about 8 fold
4T1-luc2 cells [2]
  accumulation in the dead cells area by radioactivity (RA) measurement: neither [^111In]DTPA nor free ^111In-Cl3 accumulated in the dead cells area

## [Cl][In]([Cl])[Cl] [^111In-Cl3, ^111indium-chloride]
4T1-luc2 cells [2]
  accumulation in the dead cells area by radioactivity (RA) measurement: neither [^111In]DTPA nor free ^111In-Cl3 accumulated in the dead cells area
